Assay results taken from ChEMBL document CHEMBL6121057, “Discovery of an Orally Bioavailable STING Inhibitor with In Vivo Anti-Inflammatory Activity in Mice with STING-Mediated Inflammation” (J Med Chem, 2025).

Tests used:
[1] = Metabolic stability in human liver microsomes assessed as half life; format: ADME, Microsome
[2] = Cmax in Sprague-Dawley rat at 10 mg/kg, po measured […] by LC-MS/MS analysis; format: ADME, organism-based; settings: in vivo
[3] = Cmax in Sprague-Dawley rat at 2 mg/kg, iv measured […] by LC-MS/MS analysis; format: ADME, organism-based; settings: in vivo
[4] = Tmax in Sprague-Dawley rat at 10 mg/kg, po measured […] by LC-MS/MS analysis; format: ADME, organism-based; settings: in vivo
[5] = Half life in Sprague-Dawley rat at 2 mg/kg, iv measured upto 60 mins by LC-MS/MS analysis; format: ADME, organism-based; settings: in vivo
[6] = AUC (0 to t) in Sprague-Dawley rat at 10 mg/kg, po measured upto 60 mins by LC-MS/MS analysis; format: ADME, organism-based; settings: in vivo
[7] = AUC (0 to t) in Sprague-Dawley rat at 2 mg/kg, iv measured upto 60 mins by LC-MS/MS analysis; format: ADME, organism-based; settings: in vivo
[8] = Tmax in Sprague-Dawley rat at 2 mg/kg, iv measured […] by LC-MS/MS analysis; format: ADME, organism-based; settings: in vivo
[9] = Metabolic stability in human liver microsomes assessed as intrinsic clearance; format: ADME, Microsome; settings: read-out: CLH
[10] = Oral bioavailability in Sprague-Dawley rat at 10 mg/kg measured […] by LC-MS/MS analysis; format: ADME, organism-based; settings: in vivo

Row | half-life [1] | Cmax [2] | Cmax [3] | Tmax [4] | half-life [5] | AUC(0-t) at 1 h [6] | AUC(0-t) at 1 h [7] | Tmax [8] | CLint scaled [9] | bioavailability [10] | Structure (SMILES)
1 | 139 min | 37 ng/mL | 842 ng/mL | 252 min | 48 min | 125 ng·h/mL | 536 ng·h/mL | 6 min | 6.4 mL/min/kg | 4.6% | O=C(Nc1ccc(C(F)(F)F)cc1)Nc1c[nH]c2ccc(Cl)cc12
2 | 30.4 min | – | – | – | – | – | – | – | 41 mL/min/kg | – | O=C(Nc1ccc(C(F)(F)F)cc1)Nc1c[nH]c2ccc(F)cc12
